Data taken from patent publication US10457703B2, “Bile acid derivatives as FXR/TGR5 agonists and methods of use thereof” (ENANTA PHARMACEUTICALS, INC., priority 2015, dated 2019).

Target: human FXR (NR1H4) (Homo sapiens (Human), UniProt Q96RI1)
Assay: Human FXR (NR1H4) Assay (Gal4 promoter driven luciferase reporter, Indigo Bioscience kit);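 as to Efficacy (%): 100% equals the efficacy of CDCA; efficacy normalized to CDCA set as 100%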
Assay type: cell-based
Conditions: for EC50: Human FXR (NR1H4) Assay, potency ranges; for Emax: read-out: Efficacy (%)
Source text: ASSAYS Human FXR (NR1H4) Assay
Determination of a ligand mediated Gal4 promoter driven transactivation to quantify ligand binding mediated activation of FXR. FXR Reporter Assay kit purchased from Indigo Bioscience (Catalogue number: IB00601) to determine the potency and efficacy of compound developed by Enanta that can induce FXR activation. The principle application of this reporter assay system is to quantify functional activity of human FXR. The assay utilizes non-human mammalian cells, CHO (Chinese hamster ovary) cells engineered to express human NR1H4 protein (referred to as FXR). Reporter cells also incorporate the cDNA encoding beetle luciferase which catalyzes the substrates and yields photon emission. Luminescence intensity of the reaction is quantified using a plate-reading luminometer, Envision. Reporter Cells include the luciferase reporter gene functionally linked to an FXR responsive promoter. Thus, quantifying changes in luciferase expression in the treated reporter cells provides a sensitive surrogate measure of the changes in FXR activity. […] The assay is according to the manufacturer's instructions. In brief, the assay was performed in white, 96 well plates using final volume of 100 uL containing cells with different doses of compounds. Retrieve Reporter Cells from −80° C. storage. Perform a rapid thaw of the frozen cells by transferring a 10 ml volume of 37° C. cell recovery medium into the tube of frozen cells. Recap the tube of Reporter Cells and immediately place it in a 37° C. water bath for 5-10 minutes. Retrieve the tube of Reporter Cell Suspension from the water bath. Sanitize the outside surface of the tube with a 70% alcohol swab, and then transfer it into the cell culture hood. Dispense 90 μl of cell suspension into each well of the 96-well Assay Plate. Transfer the plate into 37° C. incubator, allowing the cells adherent to the bottom of the well. Dilute compounds in Dilution Plate (DP), and administrate to cells at Assay Plate (AP). DMSO content of the samples was kept at 0.2%. Cells were incubated for additional 22 hours before luciferase activities were measured. Thirty minutes before intending to quantify FXR activity, remove Detection Substrate and Detection Buffer from the refrigerator and place them in a low-light area so that they may equilibrate to room temperature. Remove the plate's lid and discard all media contents by ejecting it into an appropriate waste container. Gently tap the inverted plate onto a clean absorbent paper towel to remove residual droplets. Cells will remain tightly adhered to well bottoms. Add 100 μl of luciferase detection reagent to each well of the assay plate. Allow the assay plate to rest at room temperature for at least 5 minutes following the addition of LDR. Set the instrument (Envision) to perform a single 5 second “plate shake” prior to reading the first assay well. Read time may be 0.5 second (500 mSec) per well.

Sequence of human FXR (NR1H4) (Q96RI1 whole entry, the tested form may be a part): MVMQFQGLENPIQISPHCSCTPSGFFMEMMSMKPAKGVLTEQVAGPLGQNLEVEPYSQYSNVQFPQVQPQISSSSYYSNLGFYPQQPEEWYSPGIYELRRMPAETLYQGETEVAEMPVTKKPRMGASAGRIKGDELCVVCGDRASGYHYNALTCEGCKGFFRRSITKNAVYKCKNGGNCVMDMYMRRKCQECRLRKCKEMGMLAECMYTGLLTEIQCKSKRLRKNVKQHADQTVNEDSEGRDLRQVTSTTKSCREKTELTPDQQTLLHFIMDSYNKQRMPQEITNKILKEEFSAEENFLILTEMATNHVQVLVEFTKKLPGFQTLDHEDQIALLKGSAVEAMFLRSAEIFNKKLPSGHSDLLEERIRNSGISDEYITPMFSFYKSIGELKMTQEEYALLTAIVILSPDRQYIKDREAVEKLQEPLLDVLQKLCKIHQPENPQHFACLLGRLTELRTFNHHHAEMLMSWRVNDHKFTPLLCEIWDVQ

Structure (SMILES) | EC50 [nM] | Emax [%]
CC[C@H]1[C@@H](O)[C@@H]2[C@H](CC[C@]3(C)[C@@H]([C@H](C)CCOC(=O)NCCC4CC4)CC[C@@H]23)[C@@]2(C)CC[C@@H](O)C[C@@H]12 [Example 177] | 100 to 1000 | 460
CC[C@H]1[C@@H](O)[C@@H]2[C@H](CC[C@]3(C)[C@@H]([C@H](C)CCOC(=O)NCCc4ccccn4)CC[C@@H]23)[C@@]2(C)CC[C@@H](O)C[C@@H]12 [Example 186] | 100 to 1000 | 373
CC[C@H]1[C@@H](O)[C@@H]2[C@H](CC[C@]3(C)[C@@H]([C@H](C)CCOC(=O)NS(=O)(=O)CC(C)(C)C)CC[C@@H]23)[C@@]2(C)CC[C@@H](O)C[C@@H]12 [Example 103] | < 100 | 294
CC[C@H]1[C@@H](O)[C@@H]2[C@H](CC[C@]3(C)[C@@H]([C@H](C)CCOC(=O)NS(=O)(=O)c4ccc(C)cc4)CC[C@@H]23)[C@@]2(C)CC[C@@H](O)C[C@@H]12 [Example 104-b] | < 100 | 363
CC[C@H]1[C@@H](O)[C@@H]2[C@H](CC[C@]3(C)[C@@H]([C@H](C)COC(=O)NS(=O)(=O)c4ccc(-n5ccnn5)cc4)CC[C@@H]23)[C@@]2(C)CC[C@@H](O)C[C@@H]12 [Example 44-g] | < 100 | 209
CC[C@H]1[C@@H](O)[C@@H]2[C@H](CC[C@]3(C)[C@@H]([C@H](C)CCOC(=O)NS(=O)(=O)c4ccc(C(F)(F)F)cc4)CC[C@@H]23)[C@@]2(C)CC[C@@H](O)C[C@@H]12 [Example 79] | < 100 | 376
CC[C@H]1[C@@H](O)[C@@H]2[C@H](CC[C@]3(C)[C@@H]([C@H](C)CCOC(=O)NCCCCCO)CC[C@@H]23)[C@@]2(C)CC[C@@H](O)C[C@@H]12 [Example 174] | < 100 | 228
CC[C@H]1[C@@H](O)[C@@H]2[C@H](CC[C@]3(C)[C@@H]([C@H](C)CCOC(=O)N[C@@H]4CCC[C@@H]4O)CC[C@@H]23)[C@@]2(C)CC[C@@H](O)C[C@@H]12 [Example 206] | < 100 | 174
CC[C@H]1[C@@H](O)[C@@H]2[C@H](CC[C@]3(C)[C@@H]([C@H](C)COC(=O)NS(=O)(=O)c4ccc(OC(F)(F)F)cc4)CC[C@@H]23)[C@@]2(C)CC[C@@H](O)C[C@@H]12 [Example 6] | 100 to 1000 | 298
CC[C@H]1[C@@H](O)[C@@H]2[C@H](CC[C@]3(C)[C@@H]([C@H](C)CCOC(=O)NS(=O)(=O)c4ccc(-c5ccccc5)s4)CC[C@@H]23)[C@@]2(C)CC[C@@H](O)C[C@@H]12 [Example 64] | 100 to 1000 | 281
CC[C@H]1[C@@H](O)[C@@H]2[C@H](CC[C@]3(C)[C@@H]([C@H](C)CCOC(=O)NS(=O)(=O)c4cccc(Cl)c4)CC[C@@H]23)[C@@]2(C)CC[C@@H](O)C[C@@H]12 [Example 65] | < 100 | 322
CC[C@H]1[C@@H](O)[C@@H]2[C@H](CC[C@]3(C)[C@@H]([C@H](C)COC(=O)NS(=O)(=O)c4ccc(N5CCC5)cc4)CC[C@@H]23)[C@@]2(C)CC[C@@H](O)C[C@@H]12 [Example 17] | < 100 | 211
CC[C@H]1[C@@H](O)[C@@H]2[C@H](CC[C@]3(C)[C@@H]([C@H](C)CCOC(=O)NS(=O)(=O)N4CC(C)(C)C4)CC[C@@H]23)[C@@]2(C)CC[C@@H](O)C[C@@H]12 [Example 104-g] | < 100 | 289
CC[C@H]1[C@@H](O)[C@@H]2[C@H](CC[C@]3(C)[C@@H]([C@H](C)COC(=O)NS(=O)(=O)c4ccc(-c5ccncc5)cc4)CC[C@@H]23)[C@@]2(C)CC[C@@H](O)C[C@@H]12 [Example 35] | 100 to 1000 | 152
CC[C@H]1[C@@H](O)[C@@H]2[C@H](CC[C@]3(C)[C@@H]([C@H](C)CCOC(=O)N4C[C@@H](C)O[C@@H](C)C4)CC[C@@H]23)[C@@]2(C)CC[C@@H](O)C[C@@H]12 [Example 182] | 100 to 1000 | 419
CC[C@H]1[C@@H](O)[C@@H]2[C@H](CC[C@]3(C)[C@@H]([C@H](C)COC(=O)N4CCCCC4)CC[C@@H]23)[C@@]2(C)CC[C@@H](O)C[C@@H]12 [Example 201] | 100 to 1000 | 1

Structure (SMILES) | EC50 [nM] | Emax [%]
CC[C@H]1[C@@H](O)[C@@H]2[C@H](CC[C@]3(C)[C@@H]([C@H](C)CCOC(=O)N4CC[C@@H](O)C4)CC[C@@H]23)[C@@]2(C)CC[C@@H](O)C[C@@H]12 [Example 215] | < 100 | 143
CC[C@H]1[C@@H](O)[C@@H]2[C@H](CC[C@]3(C)[C@@H]([C@H](C)CCOC(=O)NCCc4cccs4)CC[C@@H]23)[C@@]2(C)CC[C@@H](O)C[C@@H]12 [Example 143] | 100 to 1000 | 202
CC[C@H]1[C@@H](O)[C@@H]2[C@H](CC[C@]3(C)[C@@H]([C@H](C)CCOC(=O)NS(=O)(=O)CCc4cccc(Cl)c4)CC[C@@H]23)[C@@]2(C)CC[C@@H](O)C[C@@H]12 [Example 91] | 100 to 1000 | 313
CC[C@H]1[C@@H](O)[C@@H]2[C@H](CC[C@]3(C)[C@@H]([C@H](C)CCOC(=O)NS(=O)(=O)c4ccc5c(c4)OCCO5)CC[C@@H]23)[C@@]2(C)CC[C@@H](O)C[C@@H]12 [Example 90] | < 100 | 225
CC[C@H]1[C@@H](O)[C@@H]2[C@H](CC[C@]3(C)[C@@H]([C@H](C)CCOC(=O)N4CCC(CC)(CO)CC4)CC[C@@H]23)[C@@]2(C)CC[C@@H](O)C[C@@H]12 [Example 217] | < 100 | 337
CC[C@H]1[C@@H](O)[C@@H]2[C@H](CC[C@]3(C)[C@@H]([C@H](C)CCOC(=O)N4CCC[C@H](CO)C4)CC[C@@H]23)[C@@]2(C)CC[C@@H](O)C[C@@H]12 [Example 203] | 100 to 1000 | 380
CC[C@H]1[C@@H](O)[C@@H]2[C@H](CC[C@]3(C)[C@@H]([C@H](C)CCOC(=O)NS(=O)(=O)CCC(=O)OC)CC[C@@H]23)[C@@]2(C)CC[C@@H](O)C[C@@H]12 [Example 92] | 1000 to 10000 | 218
CC[C@H]1[C@@H](O)[C@@H]2[C@H](CC[C@]3(C)[C@@H]([C@H](C)CCOC(=O)N4CCCS4(=O)=O)CC[C@@H]23)[C@@]2(C)CC[C@@H](O)C[C@@H]12 [Example 74] | 100 to 1000 | 358
CC[C@H]1[C@@H](O)[C@@H]2[C@H](CC[C@]3(C)[C@@H]([C@H](C)CCCOC(=O)NS(=O)(=O)c4ccc(C(C)(C)C)cc4)CC[C@@H]23)[C@@]2(C)CC[C@@H](O)C[C@@H]12 [Example 111] | 100 to 1000 | 208
CC[C@H]1[C@@H](O)[C@@H]2[C@H](CC[C@]3(C)[C@@H]([C@H](C)CCOC(=O)N4CCCCS4(=O)=O)CC[C@@H]23)[C@@]2(C)CC[C@@H](O)C[C@@H]12 [Example 104-e] | 100 to 1000 | 239
CC[C@H]1[C@@H](O)[C@@H]2[C@H](CC[C@]3(C)[C@@H]([C@H](C)COC(=O)NS(=O)(=O)c4ccc(N5CCCCC5)cc4)CC[C@@H]23)[C@@]2(C)CC[C@@H](O)C[C@@H]12 [Example 9] | < 100 | 208
CC[C@H]1[C@@H](O)[C@@H]2[C@H](CC[C@]3(C)[C@@H]([C@H](C)CCOC(=O)NS(=O)(=O)C4(C)CC4)CC[C@@H]23)[C@@]2(C)CC[C@@H](O)C[C@@H]12 [Example 49] | < 100 | 269
CCCCS(=O)(=O)NC(=O)OCC[C@@H](C)[C@H]1CC[C@H]2[C@@H]3[C@H](O)[C@H](CC)[C@@H]4C[C@H](O)CC[C@]4(C)[C@H]3CC[C@]12C [Example 57] | < 100 | 392
CC[C@H]1[C@@H](O)[C@@H]2[C@H](CC[C@]3(C)[C@@H]([C@H](C)CCOC(=O)N4CC[C@@H](CO)C4)CC[C@@H]23)[C@@]2(C)CC[C@@H](O)C[C@@H]12 [Example 212] | < 100 | 479
CC[C@H]1[C@@H](O)[C@@H]2[C@H](CC[C@]3(C)[C@@H]([C@H](C)COC(=O)NS(=O)(=O)c4ccc(N5CCCCCC5)cc4)CC[C@@H]23)[C@@]2(C)CC[C@@H](O)C[C@@H]12 [Example 22] | < 100 | 262
